Assay results reported in US12063914B2, “DNA sequence that increases odorant receptor representation in the olfactory system” (Research Foundation of the City University of New York, priority 2015, dated 2024).

What was measured:
M71 OR = target: T1, M71 OR (Mus musculus, UniProt Q60893); assay: In vivo synaptophluorin (SpH) imaging of odor-evoked glomerular activity in 4•M71Cα mice; details: for efficacy [(dF/F)max]: 0.44 uM
T1 construct: the increase of OSNs expressing the M71 OR results in the coalescence of labeled axons; expressed in transfected cells; host or cells: olfactory sensory neurons of living transgenic mice (4•M71Cα, 5•M71Cα), made by pronuclear injection of the M71 minigene
T1 sequence (Q60893 1-309): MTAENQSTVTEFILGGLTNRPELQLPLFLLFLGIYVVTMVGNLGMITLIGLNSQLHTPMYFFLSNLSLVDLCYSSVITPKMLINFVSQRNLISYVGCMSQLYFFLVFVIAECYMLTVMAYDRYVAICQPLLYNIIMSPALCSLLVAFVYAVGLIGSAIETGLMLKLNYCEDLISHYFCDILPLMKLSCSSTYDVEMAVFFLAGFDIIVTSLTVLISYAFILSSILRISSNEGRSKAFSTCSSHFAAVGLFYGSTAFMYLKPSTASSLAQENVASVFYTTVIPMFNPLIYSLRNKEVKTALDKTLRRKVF
From the text: Because the M71 OR is dorsally expressed in the olfactory bulb, any cloned OR using the M71 transgenic backbone will coalesce its axons onto dorsally located glomeruli, which makes them accessible for optical imaging. Optical imaging was therefore used to functionally characterize transgenic M71 projections in the OB. To examine their functional properties odor-evoked activity was imaged from the OBs of mice expressing the genetically encoded activity reporter SpH in all mature OSNs. Simultaneously recordings were obtained from mice that are either hemizygous or homozygous for 4•M71Cα (gene-targeted M71-GFP is out crossed) and heterozygous for SpH and identify red M71 glomeruli. Seven different M71-selective ligands were used from ex vivo analysis of genetically defined M71 OSNs in gene-targeted mice: three of these ligands produced responses by SpH imaging: Acetophenone (ACP), 4-methyl acetophenone (4MACP) and 2,4-dimethyl acetophenone (24dMACP) when delivered at different odor dilutions varying between 0% and 15%. The maximum change in fluorescence [(dF/F)max] per odor concentration was calculated for each compound over a 14 s trial period having a pre-odor (3 s), odor (4 s) and post-odor (4 s) acquisition. dF/F values for all glomeruli were calculated with a standardized 50 μm window, which is fully contained in all imaged glomeruli of both hemi and homo 4•M71Cα animals. (FIG. 2A, FIG. 2B and FIG. 2C: Each data point represents the average (dF/F). of 4-16 glomeruli imaged). […] All imaged mice are heterozygous for omp-SpH.
Olfactometry: Odors (purchased form Sigma Aldrich) were delivered using a custom built olfactometer controlled by an Arduino board with custom shields operating Teflon solenoids (Neptune Research) and connected to two Mass Flow Controllers (Alicat Scientific, Inc) to dilute the clean air (N2, max flow is 2 Lpm) and to dilute the odorized air (max flow is 300 SCCM). Nitrogen (N2) was used as the vapor carrier to avoid oxidation. Odor concentrations are expressed a % dilutions of saturated vapor and as molar saturated vapor concentration (μM s.v.), calculated using published vapor pressures at 25° Celsius (US EPA, Estimation Programs Interface Suite, v 4.0. Flow diluted odors were delivered at 2 Lpm mixed prior to the delivery site with air odorized with varying dilutions of odorant taken from the saturated headspace of pre-cleaned amber vials with white polypropylene closures and septum (J. G. Finneran) containing 99% pure odorants. To avoid contamination of the olfactometer, odorized air was never passed through the Teflon valves. Instead, odors were mixed with N2 in T-shaped mixing chambers (Neptune Research) and delivered to the animal's nose using an arduino controlled vacuum system. […] Output of the olfactometer was calibrated using the tracer odor Pinene and a photoionization detector (PID; Aurora Scientific).
In vivo SpH Imaging: Mice were anesthetized using Ketamine (100 mg/kg)/Xylazin (5 mg/kg) and maintained with Isoflurane (2.5% in 02) and immobilized using a stereotactic head holding device (Narishige, Inc.). Optical signals for SpH and mCherry were recorded using an ANDOR Neo 5.5 sCMOS camera connected to a NIKON AZ100 epifluorescence microscope (NIS Elements) with a 4× objective (numerical aperture 0.4). Excitation wavelengths of 475 nm for SpH and 575 nm for mCherry and emission of 520 nm for SpH and 635 nm for mCherry were used to obtain images of the dorsolateral bulb through thinned skull overlaying the bulb of a freely breathing animal. Each imaging trial consisted of a pre-odor (3 s), odor (4 s) and post-odor (4 s) acquisition, with a total acquisition time per trial of 14 s (including 3 s of valve switch delay). Using serial code, the arduino controlling the olfactometer was integrated in the NIS Elements software, so that the entire image acquisition sequence and flow-diluted odor delivery is controlled by the microscope software. […]

[1] = at 25° C.; cited from earlier work
M71 = target: T2, M71 (Mus musculus, UniProt Q60893); details: previous ex vivo data; liquid phase; cited from earlier work
T2 construct: from ex vivo analysis of genetically defined M71 OSNs in gene-targeted mice; host or cells: dendritic knobs of M71-expressing olfactory sensory neurons from gene-targeted mice
T2 sequence (Q60893 1-309): T1 sequence (Q60893 1-309)

glomerular activity (in vivo SpH imaging) (M71 OR; 4•M71Cα animals, vapor phase, odor dilutions 0% to 15%): observed | average highest (dF/F)max (M71 OR; hemizygous 4•M71Cα animals, ACP at 1.77 uM, 4MACP at 0.69 uM, 24dMACP at 0.66 uM): 4.15% | efficacy [(dF/F)max] (M71 OR; hemizygous animals): 2.92% | efficacy [average (dF/F)max] (M71 OR; hemizygous animals, delivered at the same concentration, ˜0.70 uM): 4.15% | highest efficacy [(dF/F)max] (M71 OR; homozygous 4•M71Cα animals, ACP at 2.66 uM, 4MACP at 0.69 uM, 24dMACP at 0.46 uM): 4.92% | average efficacy (of all concentrations and odors) (M71 OR; homozygous animals): 4.92% | efficacy [(dF/F)max] (M71 OR; homozygous animals): 4.92%
Compound: CC(=O)c1ccc(C)cc1C [24dMACP, 2,4-dimethyl acetophenone]
saturated vapor pressure (Ps) [1]: 0.0811 mmHg | elicit a M71 response ex vivo (M71): did
